From ChEMBL document CHEMBL1133232, “The design and synthesis of thrombin inhibitors: analogues of MD805 containing non-polar surrogates for arginine at the P1 position” (Bioorg Med Chem Lett, 2000)

What was measured:
Prothrombin = Prothrombin (Homo sapiens, UniProt P00734); assay: Compound was evaluated for its inhibitory activity against Thrombin
Coagulation factor X = Coagulation factor X (Homo sapiens, UniProt P00742); assay: Compound was evaluated for its inhibitory activity against Coagulation factor X
Plasminogen = Plasminogen (Homo sapiens, UniProt P00747); assay: Compound was evaluated for its inhibitory activity against plasmin
Serine protease 1 = Serine protease 1 (Homo sapiens, UniProt P07477); assay: Compound was evaluated for its inhibitory activity against Trypsin
Kallikrein-1 = Kallikrein-1 (Homo sapiens, UniProt P06870); assay: Compound was evaluated for its inhibitory activity against kallikrein
Sequence of Kallikrein-1 (P06870 whole entry): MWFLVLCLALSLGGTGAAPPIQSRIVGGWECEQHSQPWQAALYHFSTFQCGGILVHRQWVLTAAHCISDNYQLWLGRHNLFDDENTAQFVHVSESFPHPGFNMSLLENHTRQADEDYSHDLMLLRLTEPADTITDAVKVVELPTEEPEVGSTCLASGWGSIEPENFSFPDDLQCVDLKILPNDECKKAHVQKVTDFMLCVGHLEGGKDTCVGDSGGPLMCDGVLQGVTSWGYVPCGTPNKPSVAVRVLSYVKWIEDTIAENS

Sequence of Coagulation factor X (P00742 41-179 limits assumed): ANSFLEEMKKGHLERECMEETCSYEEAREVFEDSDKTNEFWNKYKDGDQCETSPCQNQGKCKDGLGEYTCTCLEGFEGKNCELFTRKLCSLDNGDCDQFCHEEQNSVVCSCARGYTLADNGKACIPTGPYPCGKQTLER
Sequence of Coagulation factor X (P00742 235-488 limits assumed): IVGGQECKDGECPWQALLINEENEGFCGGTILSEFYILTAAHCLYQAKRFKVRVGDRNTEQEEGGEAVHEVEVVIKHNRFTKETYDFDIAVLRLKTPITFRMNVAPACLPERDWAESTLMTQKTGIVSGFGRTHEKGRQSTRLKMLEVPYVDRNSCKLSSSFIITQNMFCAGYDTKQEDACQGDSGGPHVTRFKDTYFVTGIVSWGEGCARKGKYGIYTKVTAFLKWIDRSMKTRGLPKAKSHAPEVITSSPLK
Sequence of Serine protease 1 (P07477 whole entry): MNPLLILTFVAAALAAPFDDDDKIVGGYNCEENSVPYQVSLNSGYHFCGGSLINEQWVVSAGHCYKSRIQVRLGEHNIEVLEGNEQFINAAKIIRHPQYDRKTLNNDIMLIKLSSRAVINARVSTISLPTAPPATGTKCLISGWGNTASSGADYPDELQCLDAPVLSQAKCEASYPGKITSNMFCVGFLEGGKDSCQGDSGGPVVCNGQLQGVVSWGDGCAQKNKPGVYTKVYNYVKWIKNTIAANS
Sequence of Plasminogen (P00747 97-580 limits assumed): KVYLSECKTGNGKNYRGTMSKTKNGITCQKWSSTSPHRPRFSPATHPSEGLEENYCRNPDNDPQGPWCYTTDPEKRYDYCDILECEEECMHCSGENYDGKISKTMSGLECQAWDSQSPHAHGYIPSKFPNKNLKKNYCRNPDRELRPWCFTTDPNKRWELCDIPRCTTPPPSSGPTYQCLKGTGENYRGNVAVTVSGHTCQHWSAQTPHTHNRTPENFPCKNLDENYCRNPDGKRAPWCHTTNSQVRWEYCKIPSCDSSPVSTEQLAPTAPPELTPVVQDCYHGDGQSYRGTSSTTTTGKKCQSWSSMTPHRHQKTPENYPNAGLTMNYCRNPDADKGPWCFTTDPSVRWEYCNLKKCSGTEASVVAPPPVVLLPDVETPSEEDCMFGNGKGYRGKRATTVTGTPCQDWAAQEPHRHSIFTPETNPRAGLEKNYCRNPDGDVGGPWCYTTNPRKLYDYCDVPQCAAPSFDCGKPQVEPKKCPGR
Sequence of Plasminogen (P00747 581-810 limits assumed): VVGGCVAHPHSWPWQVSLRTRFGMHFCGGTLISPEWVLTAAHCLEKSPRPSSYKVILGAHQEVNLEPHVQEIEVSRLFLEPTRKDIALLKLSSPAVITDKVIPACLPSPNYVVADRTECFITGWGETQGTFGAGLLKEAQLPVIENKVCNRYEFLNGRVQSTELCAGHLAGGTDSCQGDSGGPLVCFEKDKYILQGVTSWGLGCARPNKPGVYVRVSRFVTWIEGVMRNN

SMILES	Ki (Prothrombin) [µM]	Ki (Coagulation factor X) [µM]	Ki (Plasminogen) [µM]	Ki (Serine protease 1) [µM]	Ki (Kallikrein-1) [µM]
CC1(C)CNc2c(cccc2S(=O)(=O)N[C@@H](Cc2cccnc2)C(=O)N2CCC(CCO)CC2)C1	19.6				
CC1(C)CNc2c(cccc2S(=O)(=O)N[C@@H](CSCCCN)C(=O)N2CCC(CCF)CC2)C1	0.126	87	4	1.32	> 87
CC1(C)CNc2c(cccc2S(=O)(=O)N[C@@H](CSCCCN)C(=O)N2CCC(CCO)CC2)C1	0.28	87	6.2	1.78	> 87
CC1CNc2c(cccc2S(=O)(=O)N[C@@H](CCc2ccccc2)C(=O)N2CCC(CCO)CC2)C1 (some centres undefined)	47.3				
CC1(C)CNc2c(cccc2S(=O)(=O)NC(Cc2nc(-c3ccccc3)cs2)C(=O)N2CCC(CCO)CC2)C1 (centres undefined)	3.28				
CC1CNc2c(cccc2S(=O)(=O)N[C@@H](Cc2nc3ccccc3o2)C(=O)N2CCC(CCO)CC2)C1 (some centres undefined)	3.1				
CC1(C)CNc2c(cccc2S(=O)(=O)NC(Cc2nc3ccncc3s2)C(=O)N2CCC(CCF)CC2)C1 (centres undefined)	0.81				
CC1(C)CNc2c(cccc2S(=O)(=O)NC(Cc2nc3cncnc3s2)C(=O)N2CCC(CCF)CC2)C1 (centres undefined)	4.56				
Cc1csc(CC(NS(=O)(=O)c2cccc3c2NCC(C)(C)C3)C(=O)N2CCC(CCO)CC2)n1 (centres undefined)	2.19				
CC1(C)CNc2c(cccc2S(=O)(=O)NC(Cc2nc(CN)cs2)C(=O)N2CCC(CCO)CC2)C1 (centres undefined)	0.76				
CCC1CCN(C(=O)C(Cc2nc3ccccc3s2)NS(=O)(=O)c2cccc3c2NCC(C)(C)C3)CC1 (centres undefined)	0.248	92	240	260	92
CC1CNc2c(cccc2S(=O)(=O)N[C@@H](Cc2c[nH]c3ccccc23)C(=O)N2CCC(CCO)CC2)C1 (some centres undefined)	1.57				
CC(=O)OCCC1CCN(C(=O)C(Cc2nc3ccccc3[nH]2)NS(=O)(=O)c2cccc3c2NCC(C)(C)C3)CC1 (centres undefined)	0.452				
CC1(C)CNc2c(cccc2S(=O)(=O)NC(Cc2nc3ccccc3s2)C(=O)N2CCC(CCO)CC2)C1 (centres undefined)	0.0798				
CC1(C)CNc2c(cccc2S(=O)(=O)NC(Cc2nc3ccccc3s2)C(=O)N2CCC(CCF)CC2)C1 (stereo in doubt)	0.028				
CC1CNc2c(cccc2S(=O)(=O)N[C@@H](Cc2nc3ccccc3s2)C(=O)N2CCC(CCO)CC2)C1 (stereo in doubt; 23)	0.118				
CC1(C)CNc2c(cccc2S(=O)(=O)NC(Cc2nc3ccccc3s2)C(=O)N2CCC(CCF)CC2)C1 (stereo in doubt; 26)	0.026				
CC1CNc2c(cccc2S(=O)(=O)N[C@@H](Cc2nc3ccccc3s2)C(=O)N2CCC(CCO)CC2)C1 (stereo in doubt; 33)	0.118	45	109	126	> 45
